Reference: US20070238700A1, “N-PHENYL-1,1,1-TRIFLUOROMETHANESULFONAMIDE HYDRAZONE DERIVATIVE COMPOUNDS AND THEIR USAGE IN CONTROLLING PARASITES” (priority 2006, published 2007)
Where two headings read alike, the source gives them in different places.

Test system: Ctenocephalides felis
Protocol: b) Ctenocephalides felis Adulticide Assay: C. felis Single Dose Screen
Mortality of fleas was the primary endpoint in the assay. Fleas were considered dead if they didn't move or were on their sides and unable to walk or right themselves. […] The concentration chosen (1.26 μg/cm^2) was higher than that known to kill 90% of cat fleas (LC90) using the reference compound, permethrin.
The test species was the cat flea (Ctenocephalides felis). The strain used was obtained from external suppliers as pupae and held in the laboratory under testing conditions until the adults had emerged. Fifteen (15) fleas were used in a minimum of four replicates against a single concentration level (approximately 60 fleas). The insects were selected to be in the adult life stage, aged between 3 and 7 days post emergence.
The compounds to be tested were supplied as solids and were prepared in acetone as described below prior to testing. Samples were stored in a refrigerator (5±1° C.) unless otherwise specified.
During the mortality testing, the temperature was maintained at 25±1° C. Humidity was maintained at 75±5%. The base (area=159 mm^2) of a 100 mL glass Erlenmeyer (conical) flask provided the treatment surface. Flasks were pretreated with Coatasil™ glass treatment to maximise bio-availability of test compounds by preventing them from binding to glass the surface. The base of the 100 mL Erlenmeyer flask was treated with 0.5 mL of test sample in acetone and gently swirled. This volume was sufficient to cover the base of the flask. Flasks were left to dry for 24 hours before flea exposure.
Adult cat fleas were placed into a sorting chamber, which allowed fleas to jump into the Erlenmeyer flasks. Fifteen (15) adult cat fleas were collected in each flask. The top of the flasks were then covered in Parafilm™ and small holes were made to allow gas exchange. A 0.5 mL volume of acetone as a solvent control was applied to the base of an Erlenmeyer flask and the testing proceeded in the same manner described above. Cat fleas in the treatment containers were held under testing conditions for 8, 24 and/or 48 hours. Mortality was recorded at 8, 24, 8 and 24, or 24 and 48 hours Pooled 8, 24, 8 and 24, and 24 and 48 hour mortality data were converted to percentages and are summarized by Table 21, below.

Structure (SMILES) | C. felis Mortality (%) 8 h (8 h, data from laboratory 1) | C. felis Mortality (%) 24 h (24 h, data from laboratory 1) | further results
CC(=NNC(=O)c1ccccc1Cl)c1cc(Cl)ccc1NS(=O)(=O)C(F)(F)F [Compound 58] | 2% | 13% | –
CC(=NN(C)c1ccccc1)c1ccccc1NS(=O)(=O)C(F)(F)F [Compound 114, N-[2-[1-(N′-methyl-N′-phenyl)hydrazono]ethyl-phenyl]-trifluoromethanesulfonamide] | – | – | C. felis Mortality (%) 8 h: 56%; C. felis Mortality (%) 24 h: 86%
CC(=NN(C)c1ccccc1Cl)c1cc(Cl)ccc1N(C)S(=O)(=O)C(F)(F)F [Compound 40] | – | 0% | C. felis Mortality (%) 48 h (data from laboratory 1): 13%
CCC(=NN(CC)C1CCCC1)c1cc(Cl)ccc1NS(=O)(=O)C(F)(F)F [Compound 214] | 7% | 61% | –
CC(=NN(c1cc(Cl)cc(Cl)c1)C(C)C)c1cc(Cl)ccc1NS(=O)(=O)C(F)(F)F [Compound 67] | 20% | 85% | –
CCC(=O)N(CCC#N)/N=C(\C)c1cc(Cl)ccc1NS(=O)(=O)C(F)(F)F [Compound 225] | 2% | 73% | –
CCCN(N=C(C)c1cc(Cl)ccc1NS(=O)(=O)C(F)(F)F)c1cc(Cl)ccc1Cl [Compound 143] | 13% | 53% | –
COCN(c1ccc(Cl)cc1C(C)=NN1CCCCC1)S(=O)(=O)C(F)(F)F [Compound 146] | 12% | 24% | –
CCC(=NNC(=O)c1ccccc1Cl)c1cc(Cl)ccc1NS(=O)(=O)C(F)(F)F [Compound 80] | 17% | 88% | –
CC(=NNC(=O)c1ccc(Cl)cc1)c1cc(Cl)ccc1NS(=O)(=O)C(F)(F)F [Compound 57, N-[2-[1-(4-chlorobenzoyl)hydrazono]ethyl-4-chlorophenyl]-trifluoromethanesulfonamide] | – | – | C. felis Mortality (%) 8 h: 6%; C. felis Mortality (%) 24 h: 70%
O=S(=O)(Nc1ccc(Cl)cc1-c1ccnn1-c1ccc(Cl)cc1)C(F)(F)F [Compound 108, N-[2-(1-4′-chlorophenyl-1H-pyrazol-5-yl)-4-chlorophenyl]-trifluoromethanesulfonamide] | – | – | C. felis Mortality (%) 8 h: 0%; C. felis Mortality (%) 24 h: 64%
C=CCN(N=C(C)c1cc(Cl)ccc1NS(=O)(=O)C(F)(F)F)c1ccccc1 [Compound 173] | 17% | 59% | –
O=S(=O)(Nc1ccc(Cl)cc1-c1cc[nH]n1)C(F)(F)F [Compound 95] | 25% | 83% | –
CC(=NN(C)c1ccccc1)c1cccc(NS(=O)(=O)C(F)(F)F)c1 [Compound 163, N-[3-[1-(N′-methyl-N′-phenyl)hydrazono]ethylphenyl]-trifluoromethanesulfonamide] | – | – | C. felis Mortality (%) 8 h: 8%; C. felis Mortality (%) 24 h: 18%
C/C(=N\N(C)c1cnc2ccccc2n1)c1cc(Cl)ccc1NS(=O)(=O)C(F)(F)F [Compound 210] | 4% | 17% | –
CC(=Nn1c(=O)oc2ccccc21)c1cc(Cl)ccc1NS(=O)(=O)C(F)(F)F [Compound 184, N-[4-Chloro-2-(1-(2(3H)-oxo-benzoxazol-3-yl)imino)ethylphenyl]-trifluoromethanesulfonamide] | – | – | C. felis Mortality (%) 8 h: 2%; C. felis Mortality (%) 24 h: 12%
CC(=NN(C)c1cccc(Cl)n1)c1cc(Cl)ccc1NS(=O)(=O)C(F)(F)F [Compound 197] | 7% | 23% | –
CCC(=NN1CCCC1)c1cc(Cl)ccc1NS(=O)(=O)C(F)(F)F [Compound 128] | 12% | 36% | –
CCN(N=C(C)c1cc(Cl)ccc1NS(=O)(=O)C(F)(F)F)c1ccc(C)cc1 [Compound 101] | 11% | 90% | –
CCN(N=C(C)c1ccccc1NS(=O)(=O)C(F)(F)F)c1ccc(Cl)cc1 [Compound 182] | 5% | 29% | –

Structure (SMILES) | C. felis Mortality (%) 8 h (8 h, data from laboratory 1) | C. felis Mortality (%) 24 h (24 h, data from laboratory 1) | further results
CC(=NN(C)c1ccccc1C(F)(F)F)c1cc(Cl)ccc1NS(=O)(=O)C(F)(F)F [Compound 204] | 6% | 11% | –
CC(=NN(C)c1ccc(Cl)cn1)c1cc(Cl)ccc1NS(=O)(=O)C(F)(F)F [Compound 196] | 3% | 32% | –
C=CCN(N=C(C)c1cc(Cl)ccc1N(CC=C)S(=O)(=O)C(F)(F)F)c1ccc(Cl)cc1 [Compound 170] | 2% | 24% | –
CC(=NN1CCCCC1)c1cccc(NS(=O)(=O)C(F)(F)F)c1 [Compound 161] | 7% | 16% | –
CCC(=NNC(=O)c1ccc(Cl)cc1Cl)c1cc(Cl)ccc1NS(=O)(=O)C(F)(F)F [Compound 79] | 14% | 92% | –
CC(=NN(C)c1ccc(F)cc1)c1cc(Cl)ccc1NS(=O)(=O)C(F)(F)F [Compound 64] | 1% | 50% | –
CC(=Nn1cnc2ccccc21)c1cc(Cl)ccc1NS(=O)(=O)C(F)(F)F [Compound 188] | 2% | 7% | –
CCOC(=O)N(CCC(C)C)N=C(C)c1cc(Cl)ccc1NS(=O)(=O)C(F)(F)F [Compound 158] | – | – | C. felis Mortality (%) 8 h: 5%; C. felis Mortality (%) 24 h: 28%
CC(=NN(C)c1ccccc1)c1cc2c(cc1NS(=O)(=O)C(F)(F)F)OCO2 [Compound 172] | 5% | 31% | –
CN(N=C(c1ccccc1)c1cc(Cl)ccc1NS(=O)(=O)C(F)(F)F)c1ccccc1 (single isomer, unassigned) [Compound 117] | 12% | 59% | –
CCCN(N=C(C)c1cc(Cl)ccc1NS(=O)(=O)C(F)(F)F)c1ccccc1Cl [Compound 42] | – | 67% | C. felis Mortality (%) 48 h (data from laboratory 1): 100%
CC(=NN1CCCCC1)c1ccc(C(F)(F)F)cc1NS(=O)(=O)C(F)(F)F [Compound 177] | 3% | 22% | –
CC(=NNC(=O)Nc1ccccc1Cl)c1cc(Cl)ccc1NS(=O)(=O)C(F)(F)F [Compound 91] | 10% | 10% | –
CCCN(N=C(C)c1cc(Cl)ccc1NS(=O)(=O)C(F)(F)F)c1ccccc1F [Compound 45] | – | 27% | C. felis Mortality (%) 48 h (data from laboratory 1): 100%
CCOCN(c1ccc(Cl)cc1C(C)=NN1CCCCC1)S(=O)(=O)C(F)(F)F [Compound 145] | 8% | 35% | –
CN(N=C1CCc2cccc(NS(=O)(=O)C(F)(F)F)c21)c1ccccc1 [Compound 205] | 12% | 13% | –
CC(=NN(C)c1ccc(Cl)cc1Cl)c1cc(Cl)ccc1N(C)S(=O)(=O)C(F)(F)F [Compound 29] | – | 0% | C. felis Mortality (%) 48 h (data from laboratory 1): 58%
CC(=NN1CCCCC1)c1cc(Cl)ccc1N(C)S(=O)(=O)C(F)(F)F [Compound 134] | 7% | 14% | –
O=S(=O)(Nc1ccc(Cl)cc1-c1ccn(-c2ccccc2)n1)C(F)(F)F [Compound 230, N-[4-Chloro-2-[1-phenyl-1H-pyrazol-3-yl]-phenyl]-trifluoromethanesulfonamide] | – | – | C. felis Mortality (%) 8 h (8 h): 10%; C. felis Mortality (%) 24 h (24 h): 43%
CC(=NN(C)C(=O)c1ccccc1)c1cc(Cl)ccc1NS(=O)(=O)C(F)(F)F [Compound 138] | 20% | 66% | –
